Values quoted from earlier work as cited in US7772207B2, “Combination of a CDK inhibitor and CS-682 or a metabolite thereof” (Cyclacel Limited, priority 2003, dated 2010).

How the values were obtained:
[1] = phase I, patients with a variety of cancers

CCCCCCCCCCCCCCCC(=O)Nc1ccn([C@@H]2O[C@H](CO)[C@@H](O)[C@@H]2C#N)c(=O)n1 [(I), 1-(2-C-cyano-2-dioxy-β-D-arabino-pentofuranosyl)-N^4-palmitoyl cytosine]
dose limiting toxicity [1]: myelosuppression | tolerability [1]: well tolerated | anticancer activity (colon cancer; model of colon cancer): strong anticancer activity | increasing survival and preventing the spread of colon cancer metastases to the liver, compared with gemcitabine or 5-FU (colon cancer; same model of colon cancer): superior to either gemcitabine or 5-FU
